The source of these data is patent US10934255B2, “Nrf and HIF activators/HDAC inhibitors and therapeutic methods using the same” (THE BOARD OF TRUSTEES OF THE UNIVERSITY OF ILLINOIS, priority 2017, dated 2021).

Type in all cases: biochemical
The target of experiment [1] is T1, HDAC8 (Homo sapiens, UniProt Q9BY41).
T1 sequence (Q9BY41 1-377): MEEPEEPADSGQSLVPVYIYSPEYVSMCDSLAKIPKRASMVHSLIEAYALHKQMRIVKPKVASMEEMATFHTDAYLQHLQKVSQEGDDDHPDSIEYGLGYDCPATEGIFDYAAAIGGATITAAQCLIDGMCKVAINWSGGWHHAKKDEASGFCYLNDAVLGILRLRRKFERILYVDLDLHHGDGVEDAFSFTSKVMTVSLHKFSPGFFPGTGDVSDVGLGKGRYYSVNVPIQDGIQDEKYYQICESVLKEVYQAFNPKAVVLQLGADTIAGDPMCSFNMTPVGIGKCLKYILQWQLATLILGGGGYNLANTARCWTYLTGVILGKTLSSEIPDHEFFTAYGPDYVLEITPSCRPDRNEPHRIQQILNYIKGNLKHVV
The experiment is described as follows: HDAC8 isoform selectivity assay. As to conditions: Table 2 isoform selectivity; read-out: HDAC Inhibition (IC50 uM) isoform 8. Here is the method:
(§1) The HDAC1, 2, 4, 5, 6, 7, 8, 9, 10, and 11 assays used isolated recombinant human protein; HDAC3/NcoR2 complex was used for the HDAC3 assay. Substrate for HDAC1, 2, 3, 6, 10, and 11 assays is a fluorogenic peptide from p53 residues 379-382 (RHKKAc); substrate for HDAC8 is fluorogenic diacyl peptide based on residues 379-382 of p53 (RHKAcKAc). Acetyl-Lys(trifluoroacetyl)-AMC substrate was used for HDAC4, 5, 7, and 9 assays. Compounds were dissolved in DMSO and tested in 10-dose IC50 mode with 3-fold serial dilution starting at 30 μM. Control Compound Trichostatin A (TSA) was tested in a 10-dose IC50 with 3-fold serial dilution starting at 5 μM. IC50 values were extracted by curve-fitting the dose/response slopes. Assays were performed in duplicate and IC50 values are an average of data from both experiments.

Experiment [2] has as its target T2, HDAC10 (Homo sapiens, UniProt Q969S8).
T2 sequence (Q969S8 1-669): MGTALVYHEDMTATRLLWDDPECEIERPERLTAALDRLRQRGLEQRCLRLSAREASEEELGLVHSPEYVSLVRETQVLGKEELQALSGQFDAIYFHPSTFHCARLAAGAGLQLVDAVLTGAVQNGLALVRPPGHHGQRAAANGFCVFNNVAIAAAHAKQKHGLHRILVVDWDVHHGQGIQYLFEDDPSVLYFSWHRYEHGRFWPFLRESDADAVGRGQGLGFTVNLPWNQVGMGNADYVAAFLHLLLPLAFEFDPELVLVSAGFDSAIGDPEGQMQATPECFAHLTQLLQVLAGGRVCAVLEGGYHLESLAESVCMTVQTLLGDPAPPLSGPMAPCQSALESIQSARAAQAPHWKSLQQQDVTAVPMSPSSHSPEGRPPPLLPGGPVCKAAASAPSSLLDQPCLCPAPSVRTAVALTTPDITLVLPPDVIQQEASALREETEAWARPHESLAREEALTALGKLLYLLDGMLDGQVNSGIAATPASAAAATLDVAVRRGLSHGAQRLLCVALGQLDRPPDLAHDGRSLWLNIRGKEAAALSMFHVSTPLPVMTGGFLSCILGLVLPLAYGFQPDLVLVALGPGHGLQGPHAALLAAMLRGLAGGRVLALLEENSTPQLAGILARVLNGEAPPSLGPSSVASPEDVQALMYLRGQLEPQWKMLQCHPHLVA
In words: HDAC10 isoform selectivity assay. The note with it: Table 2 isoform selectivity; read-out: HDAC Inhibition (IC50 uM) isoform 10. The protocol:
as §1

Experiment [3] has as its target T3, HDAC11 (Homo sapiens, UniProt Q96DB2).
T3 sequence (Q96DB2 1-347): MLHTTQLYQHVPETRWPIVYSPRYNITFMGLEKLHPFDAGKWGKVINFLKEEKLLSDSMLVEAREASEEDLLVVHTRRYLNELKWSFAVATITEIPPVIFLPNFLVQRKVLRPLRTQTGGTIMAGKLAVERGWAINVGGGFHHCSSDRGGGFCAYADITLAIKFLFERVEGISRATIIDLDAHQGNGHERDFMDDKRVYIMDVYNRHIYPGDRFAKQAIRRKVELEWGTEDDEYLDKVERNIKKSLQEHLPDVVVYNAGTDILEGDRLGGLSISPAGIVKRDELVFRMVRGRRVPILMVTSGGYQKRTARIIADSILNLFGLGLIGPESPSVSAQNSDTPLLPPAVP
In words: HDAC11 isoform selectivity assay. The note with it: Table 2 isoform selectivity; read-out: HDAC Inhibition (IC50 uM) isoform 11. The protocol:
The HDAC1, 2, 4, 5, 6, 7, 8, 9, 10, and 11 assays used isolated recombinant human protein; HDAC3/NcoR2 complex was used for the HDAC3 assay. […] Acetyl-Lys(trifluoroacetyl)-AMC substrate was used for HDAC4, 5, 7, and 9 assays. […] IC50 values were extracted by curve-fitting the dose/response slopes. Assays were performed in duplicate and IC50 values are an average of data from both experiments.

As to `O=C(NO)c1ccc(CN2CCc3ccc(Cl)cc32)cc1` [II-ING-6, 4-((6-Chloroindolin-1-yl)methyl)-N-hydroxybenzamide], the IC50 is 0.53 µM in experiment [1], 6.39 µM in experiment [2] and 4.52 µM in experiment [3].
The corresponding values for `Cn1c(NCc2ccc(C(=O)NO)cc2)nc2ccccc21` [II-ING-13, N-Hydroxy-4-(((1-methyl-1H-benzo[d]imidazol-2-yl)amino)methyl)benzamide] are 0.17 µM, 5.95 µM and 2.11 µM.
The corresponding values for `O=C(NO)c1ccc(CN2CCc3ccc(F)cc32)cc1` [II-ING-41, 4-((6-Fluoroindolin-1-yl)methyl)-N-hydroxybenzamide] are 0.19 µM, 6.03 µM and 5.37 µM.
